Assay results from patent US11357779B2 (G1 Therapeutics, Inc., priority 2018, dated 2022).
Read-outs that look alike come from different tables or passages of the source.

Test: Plasma concentration versus time of Compound I and metabolite Compound III in patients dosed QD or BID with Form B of Compound II plus fulvestrant
Assay type: in vivo, human
Conditions: human, plasma, oral; for concentration at 8 day / concentration at 15 day: Cohort 7, 150 mg BID of Form B; for concentration at 8 day: Day 8; for concentration at 15 day: Day 15
From the text: Patients were enrolled into 1 of 2 parallel, independently operating, dose-escalation dosing cohorts with Form B of Compound II administered continuously either once daily (QD) or twice daily (BID) with food with fixed-dose fulvestrant (intramuscularly every 14 days for the first three injections and then every 28 days). Pre- or perimenopausal patients also received goserelin for the duration of study treatment. A […] agonist was started at least 28 days before the first dose of Form B, and those patients who were taking another LHRH agonist were switched to goserelin on Day 1. Patients were split into […] cohorts providing once a day (QD) dosing of 200 mg, 300 mg, 400 mg, 500 mg, or 650 mg of Form B, or twice a day (BID) dosing of 100 mg, 150 mg, or 200 mg of Form B. The second dose in BID cohorts was not administered in the evening until at least 12 hours after the initial morning dose of Form B. The dosing cohorts for Form B of Compound II are provided in Table 1.
Blood samples were collected at the following time points relative to the morning dose of Form B at Day 1 and at Day 29: pre-dose (0 hour) and 1, 2, 3, 4, 6, 8, 10, 12 (prior to the evening dose in the BID cohorts), and 24 (prior to the next day's morning dose) hours after dosing. A 5-minute time window was allowed for samples collected between the predose and 3 hours after Form B dosing. A 15-minute window was allowed for samples collected between 4 to 12 hours after Form B dosing. A 1-hour window was allowed for the sample collected 24 hours after Form B dosing. Blood samples for Compound I PK trough levels were collected pre-dose at Day 8, Day 15, and Day 22 prior to the morning administration of Compound I. Plasma concentrations of Compound I and its metabolite, Compound III, were measured using validated methods.
Analysis of plasma concentration versus time data for calculation of standard pharmacokinetic (PK) parameters following oral administration was conducted using Phoenix WinNonlin version 6.3 using actual blood sampling times.

[1] = 150 mg, read-out: Trough Compound I Concentration, Max
[2] = 150 mg, read-out: Trough Compound I Concentration, Median

In the case of `CC(C)N1CCN(c2ccc(Nc3ncc4cc5n(c4n3)C3(CCCCC3)CNC5=O)nc2)CC1` [Compound I, 2′-((5-(4-isopropylpiperazin-1-yl)pyridin-2-yl)amino)-7′,8′-dihydro-6′H-spiro[cyclohexane-1,9′-pyrazino[1′,2′:1,5]pyrrolo[2,3-d]pyrimidin]-6′-one], the concentration at 0 h (100 mg, Cohort 6, 100 mg BID of Form B, Day 29, 0.0 h, read-out: Compound I Concentration, Median) is reported as 4.13 ng/mL, the concentration at 0 h (100 mg, Cohort 6, 100 mg BID of Form B, Day 29, 0.0 h, read-out: Compound I Concentration, Min) is reported as 1.54 ng/mL and the concentration at 1 h (100 mg, Cohort 6, 100 mg BID of Form B, Day 29, 1.0 h, read-out: Compound I Concentration, Max) is reported as 15.7 ng/mL. For the same compound, the concentration at 1 h (100 mg, Cohort 6, 100 mg BID of Form B, Day 29, 1.0 h, read-out: Compound I Concentration, Mean) was 9.25 ng/mL, the concentration at 1 h (100 mg, Cohort 6, 100 mg BID of Form B, Day 29, 1.0 h, read-out: Compound I Concentration, Median) was 9.34 ng/mL and the concentration at 1 h (100 mg, Cohort 6, 100 mg BID of Form B, Day 29, 1.0 h, read-out: Compound I Concentration, Min) was 1.79 ng/mL. The concentration at 2 h (100 mg, Cohort 6, 100 mg BID of Form B, Day 29, 2.0 h, read-out: Compound I Concentration, Max) was 19.6 ng/mL, the concentration at 2 h (100 mg, Cohort 6, 100 mg BID of Form B, Day 29, 2.0 h, read-out: Compound I Concentration, Mean) was 11 ng/mL and the concentration at 2 h (100 mg, Cohort 6, 100 mg BID of Form B, Day 29, 2.0 h, read-out: Compound I Concentration, Median) was 11.8 ng/mL. The concentration at 2 h (100 mg, Cohort 6, 100 mg BID of Form B, Day 29, 2.0 h, read-out: Compound I Concentration, Min) was 2.94 ng/mL, the concentration at 3 h (100 mg, Cohort 6, 100 mg BID of Form B, Day 29, 3.0 h, read-out: Compound I Concentration, Max) was 20.5 ng/mL and the concentration at 3 h (100 mg, Cohort 6, 100 mg BID of Form B, Day 29, 3.0 h, read-out: Compound I Concentration, Mean) was 10.5 ng/mL. The concentration at 3 h (100 mg, Cohort 6, 100 mg BID of Form B, Day 29, 3.0 h, read-out: Compound I Concentration, Median) was 8.31 ng/mL, the concentration at 3 h (100 mg, Cohort 6, 100 mg BID of Form B, Day 29, 3.0 h, read-out: Compound I Concentration, Min) was 4.4 ng/mL and the concentration at 4 h (100 mg, Cohort 6, 100 mg BID of Form B, Day 29, 4.0 h, read-out: Compound I Concentration, Max) was 19.8 ng/mL. For the same compound, the concentration at 4 h (100 mg, Cohort 6, 100 mg BID of Form B, Day 29, 4.0 h, read-out: Compound I Concentration, Mean) was 10.5 ng/mL, the concentration at 4 h (100 mg, Cohort 6, 100 mg BID of Form B, Day 29, 4.0 h, read-out: Compound I Concentration, Median) was 9.26 ng/mL and the concentration at 4 h (100 mg, Cohort 6, 100 mg BID of Form B, Day 29, 4.0 h, read-out: Compound I Concentration, Min) was 5.14 ng/mL. For the same compound, the concentration at 6 h (100 mg, Cohort 6, 100 mg BID of Form B, Day 29, 6.0 h, read-out: Compound I Concentration, Max) was 16.2 ng/mL, the concentration at 6 h (100 mg, Cohort 6, 100 mg BID of Form B, Day 29, 6.0 h, read-out: Compound I Concentration, Mean) was 8.82 ng/mL and the concentration at 6 h (100 mg, Cohort 6, 100 mg BID of Form B, Day 29, 6.0 h, read-out: Compound I Concentration, Median) was 8.11 ng/mL. For the same compound, the concentration at 6 h (100 mg, Cohort 6, 100 mg BID of Form B, Day 29, 6.0 h, read-out: Compound I Concentration, Min) was 4.1 ng/mL, the concentration at 8 h (100 mg, Cohort 6, 100 mg BID of Form B, Day 29, 8.0 h, read-out: Compound I Concentration, Max) was 13.8 ng/mL and the concentration at 8 h (100 mg, Cohort 6, 100 mg BID of Form B, Day 29, 8.0 h, read-out: Compound I Concentration, Mean) was 7.45 ng/mL. It also gave a concentration at 8 h (100 mg, Cohort 6, 100 mg BID of Form B, Day 29, 8.0 h, read-out: Compound I Concentration, Median) of 6.57 ng/mL, a concentration at 8 h (100 mg, Cohort 6, 100 mg BID of Form B, Day 29, 8.0 h, read-out: Compound I Concentration, Min) of 3.61 ng/mL and a concentration at 10 h (100 mg, Cohort 6, 100 mg BID of Form B, Day 29, 10.0 h, read-out: Compound I Concentration, Max) of 11.4 ng/mL. It also gave a concentration at 10 h (100 mg, Cohort 6, 100 mg BID of Form B, Day 29, 10.0 h, read-out: Compound I Concentration, Mean) of 6.23 ng/mL, a concentration at 10 h (100 mg, Cohort 6, 100 mg BID of Form B, Day 29, 10.0 h, read-out: Compound I Concentration, Median) of 5.44 ng/mL and a concentration at 10 h (100 mg, Cohort 6, 100 mg BID of Form B, Day 29, 10.0 h, read-out: Compound I Concentration, Min) of 2.88 ng/mL. It also gave a concentration at 12 h (100 mg, Cohort 6, 100 mg BID of Form B, Day 29, 12.0 h, read-out: Compound I Concentration, Max) of 10.1 ng/mL, a concentration at 12 h (100 mg, Cohort 6, 100 mg BID of Form B, Day 29, 12.0 h, read-out: Compound I Concentration, Mean) of 7.16 ng/mL and a concentration at 12 h (100 mg, Cohort 6, 100 mg BID of Form B, Day 29, 12.0 h, read-out: Compound I Concentration, Median) of 8.36 ng/mL. The concentration at 12 h (100 mg, Cohort 6, 100 mg BID of Form B, Day 29, 12.0 h, read-out: Compound I Concentration, Min) was 2.37 ng/mL, the concentration at 0 h (150 mg, 150 mg BID of Form B, Day 1, 0.0 h, Mean, read-out: Compound I Concentration) was 0 ng/mL and the concentration at 0 h (150 mg, 150 mg BID of Form B, Day 1, 0.0 h, Median, read-out: Compound I Concentration) was 0 ng/mL. For the same compound, the concentration at 1 h (150 mg, 150 mg BID of Form B, Day 1, 1.0 h, Mean, read-out: Compound I Concentration) was 4.63 ng/mL, the concentration at 1 h (150 mg, 150 mg BID of Form B, Day 1, 1.0 h, Median, read-out: Compound I Concentration) was 5.06 ng/mL and the concentration at 2 h (150 mg, 150 mg BID of Form B, Day 1, 2.0 h, Mean, read-out: Compound I Concentration) was 11 ng/mL. It also gave a concentration at 2 h (150 mg, 150 mg BID of Form B, Day 1, 2.0 h, Median, read-out: Compound I Concentration) of 11.6 ng/mL, a concentration at 3 h (150 mg, 150 mg BID of Form B, Day 1, 3.0 h, Mean, read-out: Compound I Concentration) of 14.4 ng/mL and a concentration at 3 h (150 mg, 150 mg BID of Form B, Day 1, 3.0 h, Median, read-out: Compound I Concentration) of 10.2 ng/mL. The concentration at 4 h (150 mg, 150 mg BID of Form B, Day 1, 4.0 h, Mean, read-out: Compound I Concentration) was 20.7 ng/mL, the concentration at 4 h (150 mg, 150 mg BID of Form B, Day 1, 4.0 h, Median, read-out: Compound I Concentration) was 21.5 ng/mL and the concentration at 6 h (150 mg, 150 mg BID of Form B, Day 1, 6.0 h, Mean, read-out: Compound I Concentration) was 12.2 ng/mL. It also gave a concentration at 6 h (150 mg, 150 mg BID of Form B, Day 1, 6.0 h, Median, read-out: Compound I Concentration) of 10.4 ng/mL, a concentration at 8 h (150 mg, 150 mg BID of Form B, Day 1, 8.0 h, Mean, read-out: Compound I Concentration) of 10.1 ng/mL and a concentration at 8 h (150 mg, 150 mg BID of Form B, Day 1, 8.0 h, Median, read-out: Compound I Concentration) of 9.95 ng/mL. For the same compound, the concentration at 10 h (150 mg, 150 mg BID of Form B, Day 1, 10.0 h, Mean, read-out: Compound I Concentration) was 8.98 ng/mL, the concentration at 10 h (150 mg, 150 mg BID of Form B, Day 1, 10.0 h, Median, read-out: Compound I Concentration) was 8.98 ng/mL and the concentration at 12 h (150 mg, 150 mg BID of Form B, Day 1, 12.0 h, Mean, read-out: Compound I Concentration) was 7.73 ng/mL. The concentration at 12 h (150 mg, 150 mg BID of Form B, Day 1, 12.0 h, Median, read-out: Compound I Concentration) was 7.38 ng/mL, the concentration at 8 day [1] was 42.3 ng/mL and the concentration at 8 day (150 mg, read-out: Trough Compound I Concentration, Mean) was 26.8 ng/mL. For the same compound, the concentration at 8 day [2] was 20.6 ng/mL, the concentration at 8 day (150 mg, read-out: Trough Compound I Concentration, Min) was 17.4 ng/mL and the concentration at 15 day [1] was 35.7 ng/mL. The concentration at 15 day [2] was 23.3 ng/mL.
